Patent US10689340B2, “Substituted indoline derivatives as dengue viral replication inhibitors” (priority 2016, dated 2020)
Counter-ions that a name gives are not always drawn. Like-named read-outs stand apart in the source and are kept apart here.

Tests used:
[1] = system: DENV-2; settings: analogous DENV-2 antiviral assay, reported activity; cited from earlier work
[2] = system: DENV-2 16681 strain; assay: DENV-2 antiviral assay (eGFP fluorescence); type: cell-based, Dengue virus; settings: DENV-2 16681 eGFP, Vero cells, MOI 0.5, 3 days
Method: The antiviral activity of all the compounds of the invention was tested against the DENV-2 16681 strain which was labeled with enhanced green fluorescent protein (eGPF). The culture medium consists of minimal essential medium supplemented with 2% of heat-inactivated fetal calf serum, 0.04% gentamycin (50 mg/mL) and 2 mM of L-glutamine. Vero cells, obtained from ECACC, were suspended in culture medium and 25 μL was added to 384-well plates (2500 cells/well), which already contain the antiviral compounds. Typically, these plates contain a 5-fold serial dilution of 9 dilution steps of the test compound at 200 times the final concentration in 100% DMSO (200 nL). […] Finally, each plate contains wells which are assigned as virus controls (containing cells and virus in the absence of compound), cell controls (containing cells in the absence of virus and compound) and medium controls (containing medium in the absence of cells, virus and compounds). To the wells assigned as medium control, 25 μL of culture medium was added instead of Vero cells. Once the cells were added to the plates, the plates were incubated for 30 minutes at room temperature to allow the cells to distribute evenly within the wells. Next, the plates were incubated in a fully humidified incubator (37° C., 5% CO2) until the next day. Then, DENV-2 strain 16681, labeled with eGFP, was added at a multiplicity of infection (MOI) of 0.5. Therefore, 15 μL of virus suspension was added to all the wells containing test compound and to the wells assigned as virus control. In parallel, 15 μL of culture medium was added to the medium and cell controls. Next, the plates were incubated for 3 days in a fully humidified incubator (37° C., 5% CO2). At the day of the read out, the eGFP fluorescence was measured using an automated fluorescence microscope at 488 nm (blue laser). Using an in-house LIMS system, inhibition dose response curves for each compound were calculated and the half maximal effective concentration (EC50) was determined. Therefore, the percent inhibition (I) for every test concentration is calculated using the following formula: I=100*(ST-SCC)/(SVC-SCC); ST, SCC and SVC are the amount of eGFP signal in the test compound, cell control and virus control wells, respectively. The EC50, represents the concentration of a compound at which the virus replication is inhibited with 50%, as measured by a 50% reduction of the eGFP fluorescent intensity compared to the virus control. The EC50 is calculated using linear interpolation (Table 1).

[3] = in vitro; settings: African green monkey
[4] = system: DENV-1 strain TC974#666; assay: Tetravalent RT-qPCR assay, serotype 1; type: cell-based; settings: Dengue virus, DENV1, Vero, 72 h
Method: (§1) The antiviral activity of the compounds of the invention was tested against DENV-1 strain TC974#666 (NCPV), DENV-2 strain 16681, DENV-3 strain H87 (NCPV) and DENV-4 strain H241 (NCPV) in a RT-qPCR assay. Therefore, Vero cells were infected with either DENV-1, or -2, or -3, or -4 in the presence or absence of test compounds. At day 3 post-infection, the cells were lysed and cell lysates were used to prepare cDNA of both a viral target (the 3′UTR of DENV; Table 2) and a cellular reference gene (β-actin, Table 2). Subsequently, a duplex real time PCR was performed on a Lightcycler480 instrument. The generated Cp value is inversely proportional to the amount of RNA expression of these targets. Inhibition of DENV replication by a test compound results in a shift of Cp's for the 3′UTR gene. On the other hand, if a test compound is toxic to the cells, a similar effect on β-actin expression will be observed. The comparative ΔΔCp method is used to calculate EC50, which is based on the relative gene expression of the target gene (3′UTR) normalized with the cellular housekeeping gene (β-actin). In addition, CC50 values are determined based on the Cp values acquired for the housekeeping gene β-actin.
(§2) The culture medium consisted of minimal essential medium supplemented with 2% of heat-inactivated fetal calf serum, 0.04% gentamycin (50 mg/mL) and 2 mM of L-glutamine. Vero cells, obtained from ECACC, were suspended in culture medium and 75 μL/well was added in 96-well plates (10000 cells/well), which already contain the antiviral compounds. […] In addition, each plate contains wells which are assigned as virus controls (containing cells and virus in the absence of compound) and cell controls (containing cells in the absence of virus and compound). Once the cells were added in the plates, the plates were incubated in a fully humidified incubator (37° C., 5% CO2) until the next day. Dengue viruses serotype-1, -2, -3 and -4 were diluted in order to obtain a Cp of ˜22-24 in the assay. Therefore, 25 μL of virus suspension was added to all the wells containing test compound and to the wells assigned as virus control. In parallel, 25 μL of culture medium was added to the cell controls. Next, the plates were incubated for 3 days in a fully humidified incubator (37° C., 5% CO2). After 3 days, the supernatant was removed from the wells and the cells were washed twice with ice-cold PBS (˜100 μL). The cell pellets within the 96-well plates were stored at −80° C. for at least 1 day. Next, RNA was extracted using the Cells-to-CT^Tm lysis kit, according to the manufacturer's guideline (Life Technologies). The cell lysates can be stored at −80° C. or immediately used in the reverse transcription step.
(§3) In preparation of the reverse transcription step, mix A (table 3A) was prepared and 7.57 μL/well was dispensed in a 96-well plate. After addition of 5 μL of the cell lysates, a five minute denaturation step at 75° C. was performed (table 3B). Afterwards, 7.43 μL of mix B was added (table 3C) and the reverse transcription step was initiated (table 3D) to generate cDNA.
(§4) Finally, a RT-qPCR mix was prepared, mix C (table 4A), and 22.02 μL/well was dispensed in 96-well LightCycler qPCR plates to which 3 μL of cDNA was added and the qPCR was performed according to the conditions in table 4B on a LightCycler 480.
(§5) Using the LightCycler software and an in-house LIMS system, dose response curves for each compound were calculated and the half maximal effective concentration (EC50) and the half maximal cytotoxic concentration (CC50) were determined (Tables 5-8).

[5] = system: DENV-2 strain 16681; assay: Tetravalent RT-qPCR assay, serotype 2; type: cell-based; settings: Dengue virus, DENV2, 72 h; RT-qPCR serotype 2 16681, Protocol A, Vero cells, day 3
Method: as §1, §2, §3, §4, §5

[6] = system: Vero cells; settings: African green monkey
[7] = in vitro; type: cell-based; settings: African green monkey, CC50
Method: as §1, with “The comparative ΔΔCp method is used to calculate EC50, which is based on the relative gene expression of the target gene (3′UTR) normalized with the cellular housekeeping gene (β-actin).” left out, “β-actin. […]” for “β-actin.”
as §5

[8] = system: Vero cells; assay: in vitro; type: cell-based; settings: African green monkey, 3 days
Method: as §1, with “The comparative ΔΔCp method is used to calculate EC50, which is based on the relative gene expression of the target gene (3′UTR) normalized with the cellular housekeeping gene (β-actin).” left out, “β-actin. […]” for “β-actin.”
as §5

[9] = system: DENV-3 strain H87; assay: Tetravalent RT-qPCR assay, serotype 3; type: cell-based; settings: Dengue virus, DENV3, 72 h; RT-qPCR serotype 3 H87, Protocol A, Vero cells, day 3
Method: as §1, §2, §3, §4, §5

[10] = system: DENV-4 strain H241; assay: Tetravalent RT-qPCR assay, serotype 4; type: cell-based; settings: Dengue virus, DENV4, 72 h; RT-qPCR serotype 4 H241, Protocol A, Vero cells, day 3
Method: as §1, §2, §3, §4, §5

CNC(=O)c1cccc(NC(C(=O)c2c[nH]c3ccccc23)c2ccccc2)c1 (stereo not drawn) [(170) of WO-2013/045516]
EC50 [1]: 0.44 µM

COc1cc(NC(C(=O)N2CCc3ccc(C(F)(F)F)cc32)c2ccc(Cl)cc2)cc(OCCCC(=O)O)c1 (racemic) [Compound 3, 4-(3-((1-(4-chlorophenyl)-2-oxo-2-(6-(trifluoromethyl)indolin-1-yl)ethyl)amino)-5-methoxyphenoxy)butanoic acid]
EC50 ([2]; Dengue virus, DENV2, Vero, 72 h): 0.00048 µM
CC50 [3]: 13 µM
melting point: 192 °C

COc1cc(NC(C(=O)N2CCc3cc(OC)c(C(F)(F)F)cc32)c2ccc(Cl)cc2F)cc(OCCCC(=O)O)c1 (racemic) (as salt: HCl) [Compound 11, 4-(3-((1-(4-chloro-2-fluorophenyl)-2-(5-methoxy-6-(trifluoromethyl)indolin-1-yl)-2-oxoethyl)amino)-5-methoxyphenoxy)butanoic acid]
melting point: 121 °C

COc1cccc(NC(C(=O)N2CCc3ccccc32)c2ccccc2)c1 (stereo not drawn) [(56) of WO-2013/045516]
EC50 [1]: 0.45 µM

COc1cc(NC(C(=O)N2CCc3cc(OC)c(C(F)(F)F)cc32)c2ccc(Cl)cc2OC)cc(OCCCC(=O)O)c1 (racemic) (as salt: HCl) [Compound 7, 4-(3-((1-(4-chloro-2-methoxyphenyl)-2-(5-methoxy-6-(trifluoromethyl)indolin-1-yl)-2-oxoethyl)amino)-5-methoxyphenoxy)butanoic acid]
melting point: 160 °C

COc1cc(NC(C(=O)N2CCc3ccc(C(F)(F)F)cc32)c2ccc(Cl)cc2OC)cc(OCCCC(=O)O)c1 (single isomer, unassigned) [Compound 6B]
EC50 [4]: 0.00047 µM
EC50 [5]: 0.00015 µM
EC50 [2]: 0.00013 µM
CC50 [6]: 13 µM
CC50 at 3 days [7]: > 2.5 µM
CC50 [8]: > 2.5 µM
EC50 [9]: 0.0017 µM
EC50 [10]: 0.016 µM
